Assay results reported in ChEMBL document CHEMBL1136359, “11,12-epoxyeicosatrienoic acid (11,12-EET): structural determinants for inhibition of TNF-alpha-induced VCAM-1 expression” (Bioorg Med Chem Lett, 2003).

What was measured:
HSVEC [1] = experiment: (§1) Inhibitory activity against tumor necrosis factor-alpha (TNF-alpha) induced vascular cell adhesion molecule-1 (VCAM-1) in human endothelial cells; assay type: functional
HSVEC [2] = experiment: as §1; assay type: functional, cell-based

CCCCC/C=C\C[C@@H]1O[C@@H]1C/C=C\C/C=C\CCCC(=O)O
Inhibition (HSVEC [1]): 35%

CCCCCCCCC1OC1C/C=C\CCCCCCC(=O)NS(C)(=O)=O (stereo in doubt; 30)
Inhibition (HSVEC [1]): 31%

CCCCCCCCC1OC1CCCC/C=C\CCCC(=O)O (centres undefined)
Inhibition (HSVEC [1]): 31%

CCCCCCCCC1CC1C/C=C\CCCCCCC(=O)O (centres undefined)
Inhibition (HSVEC [1]): 31%

CC(=O)NCCCCCCCCCOCC/C=C\CCCCCCC(=O)O
Inhibition (HSVEC [1]): 63%

CCCCCCCCC1SC1C/C=C\CCCCCCC(=O)O (stereo in doubt; 15)
Inhibition (HSVEC [1]): 49%

CCCCC/C=C\CC1OC1CCCC/C=C\CCCC(=O)O (centres undefined)
Inhibition (HSVEC [1]): 30%

CCCCC/C=C\C[C@H]1O[C@H]1C/C=C\C/C=C\CCCC(=O)O
Inhibition (HSVEC [1]): 31%

CCCCC/C=C\CC1OC1CCCCCCCCCC(=O)O (centres undefined)
Inhibition (HSVEC [1]): 13%

CCCCCCCCC1OC1C/C=C\CCCCOCC(=O)O (centres undefined)
Inhibition (HSVEC [1]): 3%

CCCCCCCCCOCC/C=C\CCCCCCC(=O)NS(C)(=O)=O
Inhibition (HSVEC [1]): 1%

CCCCCCCCC1OC1C/C=C\CCCCCCCO (centres undefined)
Inhibition (HSVEC [1]): 32%

CCCCCCCCCOCC/C=C\CCCCCCC(=O)O
IC50 (HSVEC [2]): 45 nM | Inhibition (HSVEC [1]): 48%

CCCCCCCCCCC1OC1C/C=C\CCCCCCC(=O)O (centres undefined)
Inhibition (HSVEC [1]): -1%

CCCCCCCCC1OC1C/C=C\CCCCCCC(=O)NS(=O)(=O)c1ccccc1 (centres undefined)
Inhibition (HSVEC [1]): 33%

CCCCCCCCc1cocc1C/C=C\CCCCCCC(=O)O
Inhibition (HSVEC [1]): 50%

CCCCCCCCC1OC1CC/C=C\CCCCCC(=O)O (centres undefined)
Inhibition (HSVEC [1]): 13%

CCCCC/C=C\CC1SC1C/C=C\C/C=C\CCCC(=O)O (centres undefined)
Inhibition (HSVEC [1]): 65%

O=C(O)CCCCCC/C=C\CC1OC1CCCCCCCCO (centres undefined)
Inhibition (HSVEC [1]): 36%

O=C(O)CCCCCC/C=C\CCOCCCCCCCCCOc1ccc(I)cc1
Inhibition (HSVEC [1]): 52%

CCCCCCCCC1OC1CCCCCCCCCC(=O)O (centres undefined)
Inhibition (HSVEC [1]): 36%

CCCCCCCCC1OC1C/C=C\CCCCCCC(=O)O (stereo in doubt; 11)
Inhibition (HSVEC [1]): 58%

CCCCCCCCC1OC1CC#CCCCCCCC(=O)O (centres undefined)
Inhibition (HSVEC [1]): 28%

CCCCCCCC[C@@H]1O[C@@H]1C/C=C\CCCCC(=O)O
Inhibition (HSVEC [1]): 17%

O=C(O)CCCCCC/C=C\CCOCCCCCCCCCO
Inhibition (HSVEC [1]): 27%

CCCCCCCCC1OC1C/C=C\CCCCCCC(=O)NS(C)(=O)=O (stereo in doubt; 29)
Inhibition (HSVEC [1]): 29%

CCCCCCCCC1OC1C/C=C\CCCCCCC(=O)O (stereo in doubt; 21)
Inhibition (HSVEC [1]): 1%

CCCCCCCC[C@H]1O[C@H]1C/C=C\CCCCC(=O)O
Inhibition (HSVEC [1]): 13%

CCCCCCCCC1OC1C/C=C\CCCCCCC(=O)O (stereo in doubt; 9)
IC50 (HSVEC [2]): 60 nM | Inhibition (HSVEC [1]): 69%

CCCCC/C=C\CC1OC1C/C=C\C/C=C\CCCC(=O)O (centres undefined)
Inhibition (HSVEC [1]): 39%

CCCCC/C=C\CC1OC1C/C=C\CCCCCCC(=O)O (centres undefined)
Inhibition (HSVEC [1]): 10%

CCCCCCCCC1SC1C/C=C\CCCCCCC(=O)O (stereo in doubt; 16)
Inhibition (HSVEC [1]): 26%
